Source: patent US5618830A (priority 1995, dated 1997)
Structures can show the parent of a compound that is named as a salt. Where two headings read alike, the source gives them in different places.

Assays:
VSV transcription = VSV transcription (Vesicular stomatitis Indiana virus, UniProt P03523); assay: biochemical
HIV RNase H = HIV RNase H (Human immunodeficiency virus type 1 group M subtype B, UniProt P04585); assay: HIV RNase H assay; type: biochemical
T7 Phage RNA Polymerase = T7 Phage RNA Polymerase (Escherichia phage T7, UniProt P00573); assay: T7 Phage RNA Polymerase assay; type: biochemical
[1] = target: influenza transcription (flu APR8 virus) (Influenza A virus, UniProt P03433); assay: biochemical; parameters: species or system influenza virus A/PR/8/34 (H1N1)
RNase A = RNase A (Bos taurus, UniProt P61823); assay: RNase A assay
[2] = test system: influenza virus transcription; assay: in vitro transcription primed with cap1 ALMV, B/Hong Kong/5/72; type: biochemical, influenza virus B/Hong Kong/5/72; conditions: virus strain B/Hong Kong/5/72, read-out: IC50, inhibition of influenza virus transcription
[3] = target: influenza virus transcription (Influenza A virus (A/Port Chalmers/1/1973(H3N2)), UniProt Q1PUD2); type: biochemical, influenza virus A/Port Chalmers/1/73 (H3N2); conditions: read-out: IC50, inhibition of influenza virus transcription
[4] = target: EcoRI Restriction Endonuclease (Escherichia coli, UniProt P00642); assay: EcoRI Restriction Endonuclease assay; type: biochemical
Influenza Endonuclease = Influenza Endonuclease (Influenza A virus, UniProt P03433); assay: biochemical
RNase U2 = RNase U2 (Ustilago sphaerogena, UniProt P00654); assay: RNase U2 assay
RNase T1 = RNase T1 (Aspergillus oryzae, UniProt P00651); assay: RNase T1 assay
[5] = target: influenza virus transcription (Influenza A virus (A/nt/60/1968(H3N2)), UniProt P03434); type: biochemical, influenza virus A/Hong Kong/8/68 (H3N2); conditions: read-out: IC50, inhibition of influenza virus transcription; virus strain A/Hong Kong/8/68 (H3N2); primed with cap1 ALMV
Hela RNA Polymerase II = target: T1, Hela RNA Polymerase II (Homo sapiens, UniProt P24928); assay: Hela RNA polymerase II run-off transcription; type: biochemical
T1 construct: Hela RNA polymerase II in Hela extract; endogenous in cells; host or cells: HeLa extract
Protocol: d. Hela RNA polymerase II-Compounds or DMSO were incubated in a run-off transcription assay using Hela RNA polymerase II in Hela extract with 50 ng/μl of pD5 template (Adeno major late promoter) in a final reaction containing 500 μM A,C,GTP and 0.5 μM [32]P-UTP in 15 mM Tris-HCl, pH 7.9/7.0 mM MGCl2 /32 mM (NH4)2 SO4 /0.2 mM EDTA/1.3 mM DTT for 60 min at 30° C. Following ethanol precipitation, reaction products were electrophoresed on 8% polyacrylamide gels containing 7M urea.

[6] = target: influenza virus transcription (Influenza A virus (A/Japan/305-/1957(H2N2)), UniProt Q1K9Q4); type: biochemical, influenza virus A/Japan/305/57 (H2N2); conditions: read-out: IC50, inhibition of influenza virus transcription; virus strain A/Japan/305/57 (H2N2); primed with cap1 ALMV
Hela DNA Polymerase-a = target: T2, Hela DNA Polymerase-a (Homo sapiens, UniProt P09884); assay: Hela DNA Polymerase-a assay; type: biochemical
T2 construct: Hela cell DNA polymerase α; endogenous in cells; host or cells: HeLa cells
T2 sequence (P09884 1-1462): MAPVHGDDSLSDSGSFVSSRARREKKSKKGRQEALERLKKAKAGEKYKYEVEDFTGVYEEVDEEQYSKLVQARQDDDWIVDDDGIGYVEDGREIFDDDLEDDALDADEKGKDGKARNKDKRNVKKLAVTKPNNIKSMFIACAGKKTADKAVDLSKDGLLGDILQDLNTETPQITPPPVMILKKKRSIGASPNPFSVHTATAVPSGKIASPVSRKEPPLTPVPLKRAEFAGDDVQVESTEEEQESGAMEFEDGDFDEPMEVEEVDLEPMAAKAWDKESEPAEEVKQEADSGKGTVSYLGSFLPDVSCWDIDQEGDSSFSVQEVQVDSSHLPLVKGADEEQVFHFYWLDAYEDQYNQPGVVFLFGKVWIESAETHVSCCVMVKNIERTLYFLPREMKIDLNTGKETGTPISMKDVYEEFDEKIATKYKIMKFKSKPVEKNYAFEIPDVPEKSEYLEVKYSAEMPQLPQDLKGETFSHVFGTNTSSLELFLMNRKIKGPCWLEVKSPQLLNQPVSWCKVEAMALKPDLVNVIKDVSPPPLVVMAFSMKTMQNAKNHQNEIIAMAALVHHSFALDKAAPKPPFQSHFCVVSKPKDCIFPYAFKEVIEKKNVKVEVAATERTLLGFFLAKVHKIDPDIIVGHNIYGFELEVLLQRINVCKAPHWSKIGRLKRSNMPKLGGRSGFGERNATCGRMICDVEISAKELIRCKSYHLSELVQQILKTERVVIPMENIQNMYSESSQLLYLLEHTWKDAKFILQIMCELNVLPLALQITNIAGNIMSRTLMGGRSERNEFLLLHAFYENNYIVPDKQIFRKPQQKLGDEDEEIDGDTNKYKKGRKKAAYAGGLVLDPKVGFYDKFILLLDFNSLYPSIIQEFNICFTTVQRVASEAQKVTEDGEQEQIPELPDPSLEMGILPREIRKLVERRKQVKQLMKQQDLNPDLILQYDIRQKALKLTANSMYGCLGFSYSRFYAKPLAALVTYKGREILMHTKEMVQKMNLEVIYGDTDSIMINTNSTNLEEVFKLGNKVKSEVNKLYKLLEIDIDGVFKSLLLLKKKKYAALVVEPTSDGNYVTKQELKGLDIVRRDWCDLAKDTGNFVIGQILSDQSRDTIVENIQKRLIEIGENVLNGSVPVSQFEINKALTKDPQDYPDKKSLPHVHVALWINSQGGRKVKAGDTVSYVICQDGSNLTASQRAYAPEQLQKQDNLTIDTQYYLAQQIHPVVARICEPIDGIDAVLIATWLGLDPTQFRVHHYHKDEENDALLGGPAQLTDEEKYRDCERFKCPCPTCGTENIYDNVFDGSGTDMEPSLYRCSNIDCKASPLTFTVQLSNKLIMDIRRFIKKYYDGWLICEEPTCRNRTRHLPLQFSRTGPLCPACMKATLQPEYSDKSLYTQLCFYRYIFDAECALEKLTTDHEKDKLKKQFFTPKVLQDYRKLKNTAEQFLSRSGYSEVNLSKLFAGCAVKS

[7] = target: cap-independent influenza transcription primed with ApG (Influenza A virus, UniProt P03431); assay: biochemical

`O=C(O)C(=O)CC(=O)C1(Cc2ccc(Cl)cc2)CCCN(Cc2ccccc2)C1` (centres unmarked) [Compound A, 4-[N-benzyl-3-(4-chlorobenzyl)piperidin-3-yl]2,4-dioxobutanoic acid hydrochloride] showed an IC50 (VSV transcription) greater than 500 µM, an IC50 (HIV RNase H) of 100 µM and an IC50 (T7 Phage RNA Polymerase) greater than 100 µM. For the same molecule, the IC50 [1] was 1100 nM, the IC50 ([1]; read-out: IC50, inhibition of influenza virus transcription) was 1100 nM and the IC50 (RNase A) was greater than 200 µM. For the same molecule, the IC50 [2] was 850 nM, the IC50 [3] was 500 nM and the IC50 [4] was greater than 500 µM. The IC50 (Influenza Endonuclease) was 1800 nM, the IC50 (RNase U2) was greater than 200 µM and the IC50 (RNase T1) was greater than 200 µM. The IC50 [5] was 620 nM, the IC50 (Hela RNA Polymerase II) was greater than 500 µM and the IC50 [6] was 250 nM. For the same molecule, the IC50 (Hela DNA Polymerase-a) was greater than 100 µM and the IC50 [7] was greater than 1 mM.
